Columns and labels:
Format in all cases: biochemical
[1] = molecular target: T1, Btk (Homo sapiens, UniProt Q06187); assay: Btk in vitro inhibitory activity (one of Method A TR-FRET, Method B electrophoretic mobility shift, Method C radiometric filter binding); conditions: wild-type Btk; read-out: Btk-WT IC50
T1 construct: purified from insect cells as a full-length construct containing a N-terminal 6X-His tag; His6 (N); made in house; host or cells: insect cells (Method C)
Procedure, shortened: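 Three alternative formats were used. A radiometric filter-binding read used 8 nM full-length His-BTK with 0.2 mg/mL poly(Glu-Tyr) 4:1 (C); microfluidic separation of 1 μM FAM-peptide by 1 nM BTK gave IC50 from 12-point curves (B); TR-FRET at Km ATP, 0.5 nM Btk, gave Ki(app)-derived IC50 (A).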

[2] = molecular target: T2, panel of kinases (Homo sapiens, UniProt P51813); assay: Inhibition of a panel of kinases (in vitro HotSpot kinase assay, 33P-ATP, 1 μM ATP), other kinases; conditions: BMX wild-type, read-out: BMX-WT IC50
T2 sequence (P51813 1-675): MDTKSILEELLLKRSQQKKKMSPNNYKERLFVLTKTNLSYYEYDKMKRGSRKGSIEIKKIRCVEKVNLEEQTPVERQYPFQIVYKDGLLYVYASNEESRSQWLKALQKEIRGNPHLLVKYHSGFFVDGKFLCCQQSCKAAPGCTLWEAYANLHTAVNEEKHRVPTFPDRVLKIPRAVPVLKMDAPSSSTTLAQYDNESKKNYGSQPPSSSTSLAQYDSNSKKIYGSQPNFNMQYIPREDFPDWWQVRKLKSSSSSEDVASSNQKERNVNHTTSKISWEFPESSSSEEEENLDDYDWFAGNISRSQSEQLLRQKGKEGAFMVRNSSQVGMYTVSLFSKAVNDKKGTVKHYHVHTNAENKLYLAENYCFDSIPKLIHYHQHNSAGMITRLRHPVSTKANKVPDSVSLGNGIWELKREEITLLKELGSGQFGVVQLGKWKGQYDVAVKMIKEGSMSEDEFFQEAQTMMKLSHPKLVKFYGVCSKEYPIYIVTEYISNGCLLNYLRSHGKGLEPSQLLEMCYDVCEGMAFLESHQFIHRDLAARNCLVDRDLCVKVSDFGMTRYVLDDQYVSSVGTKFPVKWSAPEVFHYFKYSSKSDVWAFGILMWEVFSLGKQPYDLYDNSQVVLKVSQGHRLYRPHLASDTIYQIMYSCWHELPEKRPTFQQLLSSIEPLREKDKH
Procedure, shortened: (§1)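 Radiometric read-out: 33P transfer to a suitable substrate by each purified enzyme, ATP at 1 μM. Values are degree of inhibition.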

[3] = molecular target: T3, TEC (Homo sapiens, UniProt P42680); assay: Inhibition of a panel of kinases (in vitro HotSpot kinase assay, 33P-ATP, 1 μM ATP); conditions: for IC50: HotSpot kinase assay, 1 μM ATP; for TEC/Btk: ratio of TEC IC50 to Btk IC50 (selectivity)
T3 sequence (P42680 1-631): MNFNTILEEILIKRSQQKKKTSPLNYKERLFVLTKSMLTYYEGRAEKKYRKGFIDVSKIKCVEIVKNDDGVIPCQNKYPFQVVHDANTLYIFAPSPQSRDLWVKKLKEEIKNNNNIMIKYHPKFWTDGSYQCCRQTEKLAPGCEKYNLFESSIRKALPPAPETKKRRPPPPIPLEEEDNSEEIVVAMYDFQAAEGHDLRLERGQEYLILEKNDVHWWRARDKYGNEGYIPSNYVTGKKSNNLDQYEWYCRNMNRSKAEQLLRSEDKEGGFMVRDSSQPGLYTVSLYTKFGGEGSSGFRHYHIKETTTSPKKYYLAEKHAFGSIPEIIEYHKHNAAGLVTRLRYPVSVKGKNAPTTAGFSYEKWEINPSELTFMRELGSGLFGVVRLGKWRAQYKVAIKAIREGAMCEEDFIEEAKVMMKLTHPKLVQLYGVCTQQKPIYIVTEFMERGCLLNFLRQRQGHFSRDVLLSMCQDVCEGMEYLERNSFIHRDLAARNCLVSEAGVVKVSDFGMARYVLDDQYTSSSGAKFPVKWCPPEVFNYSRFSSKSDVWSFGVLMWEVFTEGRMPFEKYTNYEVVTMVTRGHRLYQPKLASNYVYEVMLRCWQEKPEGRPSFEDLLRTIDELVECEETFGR
Procedure, shortened: as §1

T1 sequence (Q06187 whole entry): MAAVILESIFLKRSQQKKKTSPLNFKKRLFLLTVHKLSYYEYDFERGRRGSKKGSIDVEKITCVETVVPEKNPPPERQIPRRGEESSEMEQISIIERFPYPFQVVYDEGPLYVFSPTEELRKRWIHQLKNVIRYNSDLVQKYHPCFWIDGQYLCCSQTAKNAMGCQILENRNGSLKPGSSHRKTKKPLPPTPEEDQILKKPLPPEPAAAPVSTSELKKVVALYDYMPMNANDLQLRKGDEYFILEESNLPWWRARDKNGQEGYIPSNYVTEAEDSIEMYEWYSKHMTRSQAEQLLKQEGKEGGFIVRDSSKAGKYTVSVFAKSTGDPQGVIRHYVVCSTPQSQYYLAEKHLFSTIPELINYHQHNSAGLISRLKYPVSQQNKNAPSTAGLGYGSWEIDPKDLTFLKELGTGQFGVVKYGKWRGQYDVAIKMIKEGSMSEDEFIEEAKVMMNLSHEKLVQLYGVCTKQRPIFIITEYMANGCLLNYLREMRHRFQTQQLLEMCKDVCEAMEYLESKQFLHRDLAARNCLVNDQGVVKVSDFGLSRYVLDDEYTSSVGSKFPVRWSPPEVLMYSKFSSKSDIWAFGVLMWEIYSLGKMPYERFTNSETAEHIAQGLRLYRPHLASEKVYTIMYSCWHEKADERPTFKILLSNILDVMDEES

Row | SMILES | IC50 [1] [µM] | IC50 [2] [µM] | IC50 [3] [µM] | TEC/Btk [3]
1 | CC(=O)N1C[C@H](Nc2n[nH]c3nccc(-c4ccc(CNC(=O)c5nc(C(C)(C)C)no5)c(F)c4)c23)CC[C@@H]1C [Example 408, N-{[4-(3-{[(3R,6S)-1-acetyl-6-methylpiperidin-3-yl]amino}-1H-pyrazolo[3,4-b]pyridin-4-yl)-2-fluorophenyl]methyl}-3-tert-butyl-1,2,4-oxadiazole-5-carboxamide] | 0.000413 | 0.874 | 0.11 | 
2 | C[C@@H](NC(=O)c1noc(C(C)(C)C)n1)c1ccc(-c2ccnc3[nH]nc(N[C@@H]4CC[C@H](C)N(C(=O)N(C)C)C4)c23)cc1F [Example 191, (2S,5R)-5-{[4-(4-{(1R)-1-[(5-tert-butyl-1,2,4-oxadiazole-3-carbonyl)amino]ethyl}-3-fluorophenyl)-1H-pyrazolo[3,4-b]pyridin-3-yl]amino}-N,N,2-trimethylpiperidine-1-carboxamide] | 0.000329 | 0.31 | 0.34 | 1033
3 | C=CC(=O)N1CCC[C@@H](Nc2n[nH]c3nccc(-c4ccc(CNC(=O)c5cc(CC)on5)c(F)c4)c23)[C@H]1C [Example 304, 5-ethyl-N-{[2-fluoro-4-(3-{[(2R,3R)-2-methyl-1-(prop-2-enoyl)piperidin-3-yl]amino}-1H-pyrazolo[3,4-b]pyridin-4-yl)phenyl]methyl}-1,2-oxazole-3-carboxamide] | 0.000908 | 0.00459 | 0.0159 | 
4 | N[C@@H]1CCN(c2n[nH]c3nccc(-c4ccc(CNC(=O)c5nc6c(s5)CCCC6)c(F)c4)c23)C1 [Example 366, N-[(4-{3-[(3R)-3-aminopyrrolidin-1-yl]-1H-pyrazolo[3,4-b]pyridin-4-yl}-2-fluorophenyl)methyl]-4,5,6,7-tetrahydro-1,3-benzothiazole-2-carboxamide] | 0.0219 | 1.32 | 7.07 | 
5 | CC(C)c1cc(C(=O)NCc2ccc(-c3ccnc4[nH]nc(N[C@@H]5CCCN[C@@H]5C)c34)cc2F)no1 [Example 172, N-{[2-fluoro-4-(3-{[(2R,3R)-2-methylpiperidin-3-yl]amino}-1H-pyrazolo[3,4-b]pyridin-4-yl)phenyl]methyl}-5-(propan-2-yl)-1,2-oxazole-3-carboxamide] | 0.436 | > 10 | > 10 | >100
6 | CC(C)(C)c1ccc2c(c1)CCN(Cc1ccc(-c3ccnc4[nH]nc(N[C@H]5CC[C@H](O)CC5)c34)cc1F)C2=O [Compound 38, 6-tert-butyl-2-{[2-fluoro-4-(3-{[(11r,4r)-4-hydroxycyclohexyl]amino}-1H-pyrazolo[3,4-b]pyridin-4-yl)phenyl]methyl}-1,2,3,4-tetrahydroisoquinolin-1-one] | > 10 | > 10 | > 10 | 
7 | C[C@@H](NC(=O)c1noc(C(C)(C)C)n1)c1ccc(-c2ccnc3[nH]nc(N[C@@H]4CCNC4)c23)cc1 [Example 73, 5-tert-butyl-N-[(1R)-1-[4-(3-{[(3R)-pyrrolidin-3-yl]amino}-1H-pyrazolo[3,4-b]pyridin-4-yl)phenyl]ethyl]-1,2,4-oxadiazole-3-carboxamide] | 0.0379 | > 10 | > 10 | >100

The remaining lines, values ahead:

Row | IC50 [1] [µM] | IC50 [2] [µM] | IC50 [3] [µM] | TEC/Btk [3] | SMILES
8 | 0.00151 | 8.03 | 3.28 |  | C=CC(=O)N1CC[C@@H](Nc2n[nH]c3nccc(-c4ccnc(N5CCn6c(cc7c6CC(C)(C)C7)C5=O)c4CO)c23)C1 [Example 298, 2-[3-(hydroxymethyl)-4-(3-{[(3R)-1-(prop-2-enoyl)pyrrolidin-3-yl]amino}-1H-pyrazolo[3,4-b]pyridin-4-yl)pyridin-2-yl]-7,7-dimethyl-3,4,7,8-tetrahydro-2H-cyclopenta[4,5]pyrrolo[1,2-a]pyrazin-1(6H)-one]
9 | 0.0406 | 0.133 | 0.671 |  | C=CC(=O)N1CC[C@@H](Nc2n[nH]c3nccc(-c4ccc(CNC(=O)c5cn6ccccc6n5)c(F)c4)c23)C1 [Example 377, N-{[2-fluoro-4-(3-{[(3R)-1-(prop-2-enoyl)pyrrolidin-3-yl]amino}-1H-pyrazolo[3,4-b]pyridin-4-yl)phenyl]methyl}imidazo [1,2-a]pyridine-2-carboxamide]
10 | 0.00062 | 0.182 | 0.13 | 210 | C=CC(=O)N1CC[C@@H](Nc2n[nH]c3nccc(-c4ccc(CNC(=O)c5ccc(C(C)(C)C)cc5)c(F)c4)c23)C1 [Compound 6, 4-tert-butyl-N-{[2-fluoro-4-(3-{[(3R)-1-(prop-2-enoyl)pyrrolidin-3-yl]amino}-1H-pyrazolo[3,4-b]pyridin-4-yl)phenyl]methyl}benzamide]
